“And” between values parts separate entries of the source, which are not always exact repeats. Equal values may be shown once.
Key:
OX1 = target: T1, OX1 (Homo sapiens, UniProt O43613); assay: Orexin receptor cell-based functional assay, [Ca2+]i by FLIPR, CHO-OX1 cells; settings: FLIPR calcium, antagonism of EC90 of [OX], read-out: OXI, IC50
T1 construct: expressed in transfected cells; host or cells: CHO (CHO-OX1)
T1 sequence (O43613 1-425): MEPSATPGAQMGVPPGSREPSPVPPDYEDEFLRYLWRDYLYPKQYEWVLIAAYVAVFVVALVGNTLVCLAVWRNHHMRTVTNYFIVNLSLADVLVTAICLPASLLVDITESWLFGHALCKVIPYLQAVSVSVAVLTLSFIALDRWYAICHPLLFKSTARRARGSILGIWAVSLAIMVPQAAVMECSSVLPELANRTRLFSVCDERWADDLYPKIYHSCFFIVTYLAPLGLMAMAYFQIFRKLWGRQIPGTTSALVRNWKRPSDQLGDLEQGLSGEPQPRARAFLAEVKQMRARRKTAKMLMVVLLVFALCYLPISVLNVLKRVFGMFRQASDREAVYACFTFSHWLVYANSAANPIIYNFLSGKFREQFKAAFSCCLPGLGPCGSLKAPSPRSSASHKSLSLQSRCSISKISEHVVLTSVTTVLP

OX2 = target: T2, OX2 (Homo sapiens, UniProt O43614); assay: Orexin receptor cell-based functional assay, [Ca2+]i by FLIPR, CHO-OX2 cells; settings: FLIPR calcium, antagonism of EC90 of [OX]
T2 construct: expressed in transfected cells; host or cells: CHO (CHO-OX2)
T2 sequence (O43614 1-444): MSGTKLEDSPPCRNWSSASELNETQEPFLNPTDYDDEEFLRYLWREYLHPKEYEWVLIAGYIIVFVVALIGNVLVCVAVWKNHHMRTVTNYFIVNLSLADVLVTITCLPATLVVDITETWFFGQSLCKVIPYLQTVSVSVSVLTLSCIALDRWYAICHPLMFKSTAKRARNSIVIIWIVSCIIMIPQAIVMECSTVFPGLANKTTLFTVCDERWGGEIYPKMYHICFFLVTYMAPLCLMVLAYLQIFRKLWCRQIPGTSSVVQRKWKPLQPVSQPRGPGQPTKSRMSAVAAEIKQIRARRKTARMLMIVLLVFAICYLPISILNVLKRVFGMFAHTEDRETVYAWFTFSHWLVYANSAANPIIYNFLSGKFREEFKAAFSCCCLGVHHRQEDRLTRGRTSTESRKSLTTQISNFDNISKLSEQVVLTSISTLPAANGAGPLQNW
Outline: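 CHO cells expressing human OX1 or OX2 (20,000/well, grown overnight) were loaded with Calcium6 dye plus 2.5 mM probenecid for 2 h at 37 °C, then preincubated 30 min with compound (0.1 nM–10 µM). FLIPR fluorescence (ex 488/em 540 nm) was tracked before and after an EC90 orexin challenge.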

Row | Compound | IC50 (OX1) | IC50 (OX2)
1 | C[C@@H]1CC(F)(F)CN(C(=O)c2nn(C)cc2-c2ncccn2)[C@@H]1COc1ncc(C(F)(F)F)cn1 [Compound 222, ((2S,3R)-5,5-difluoro-3-methyl-2-(((5-(trifluoromethyl)pyrimidin-2-yl)oxy)methyl)piperidin-1-yl)(1-methyl-4-(pyrimidin-2-yl)-1H-pyrazol-3-yl)methanone] | 26 nM | > 5000 nM
2 | C[C@@H]1CC(F)(F)CN(C(=O)c2nn(C)cc2-c2ncc(F)cn2)[C@@H]1COc1ccc(C(F)(F)F)cn1 [Compound 248] | 50 nM | > 5000 nM
3 | C[C@@H]1CC(F)(F)CN(C(=O)c2nn(C)cc2-c2ncccn2)[C@@H]1CNc1ncc(C(F)(F)F)cc1F [Compound 228, ((2S,3R)-5,5-difluoro-2-(((3-fluoro-5-(trifluoromethyl)pyridin-2-yl)amino)methyl)-3-methylpiperidin-1-yl)(1-methyl-4-(pyrimidin-2-yl)-1H-pyrazol-3-yl)methanone] | 14 nM | > 5000 nM
4 | COc1cccc(-c2sc(C)nc2C(=O)N2CC(F)(F)C[C@@H](C)[C@H]2CNc2cnc(C(F)(F)F)cn2)c1 [Compound 142] | 4 nM | > 5000 nM
5 | Cc1ccnc(-c2sc(C)nc2C(=O)N2CC(F)(F)C[C@@H](C)[C@H]2CNc2ncc(C(F)(F)F)cn2)c1 [Compound 74] | 6 nM | > 5000 nM
6 | Cc1ccc(-c2sc(C)nc2C(=O)N2CC(F)(F)C[C@@H](C)[C@H]2CNc2ncc(C(F)(F)F)cn2)nc1 [Compound 76] | 10 nM | > 5000 nM
7 | C[C@@H]1CC(F)(F)CN(C(=O)c2nn(C)cc2-c2ccc(F)cc2)[C@@H]1CNc1cnc(C(F)(F)F)cn1 [Compound 121] | 5 nM | > 5000 nM
8 | C[C@@H]1CC(F)(F)CN(C(=O)c2nn(C)cc2-c2ccc(F)cc2)[C@@H]1CNc1ccc(C(F)(F)F)cn1 [Compound 169] | 2 nM | > 5000 nM
9 | C[C@@H]1CC(F)(F)CN(C(=O)c2nn(C)cc2-c2ncc(F)cn2)[C@@H]1CNc1ncc(C(F)(F)F)cn1 [Compound 217, ((2S,3R)-5,5-difluoro-3-methyl-2-(((5-(trifluoromethyl)pyrimidin-2-yl)amino)methyl)piperidin-1-yl)(4-(5-fluoropyrimidin-2-yl)-1-methyl-1H-pyrazol-3-yl)methanone] | 4 nM | > 5000 nM
10 | C[C@@H]1CC(F)(F)CN(C(=O)c2nn(C)nc2-c2ccccc2)[C@@H]1CNc1ncc(C(F)(F)F)cn1 [Compound 82] | 45 nM | > 5000 nM
11 | Cc1nc(C(=O)N2CC(F)(F)C[C@@H](C)[C@H]2CNc2ncc(C(F)(F)F)cn2)c(-c2ccccc2)o1 [Compound 85] | 12 nM and 30 nM | > 5000 nM

Now from value to compound:

Row | IC50 (OX1) | IC50 (OX2) | Compound
12 | 206 nM | > 5000 nM | C[C@@H]1CC(F)(F)CN(C(=O)c2nn(C)cc2-c2cccnc2)[C@@H]1CNc1ncc(C(F)(F)F)cn1 [Compound 90]
13 | 19 nM | > 5000 nM | COc1ccc(-c2cn(C)nc2C(=O)N2CC(F)(F)C[C@@H](C)[C@H]2CNc2cnc(C(F)(F)F)cn2)nc1 [Compound 135]
14 | 10 nM | > 5000 nM | Cc1noc(-c2ccc(Cl)cc2C(=O)N2CC(F)(F)C[C@@H](C)[C@H]2CNc2ncc(C(F)(F)F)cn2)n1 [Compound 19]
15 | > 1000 nM | > 5000 nM | C[C@@H]1CC(F)(F)CN(C(=O)c2cnn(C)c2-c2ccccn2)[C@@H]1CNc1ncc(Cl)cn1 [Compound 96]
16 | 40 nM | > 5000 nM | COc1cccc(-c2cn(C)nc2C(=O)N2CC(F)(F)C[C@@H](C)[C@H]2CNc2cnc(C(F)(F)F)cn2)n1 [Compound 136]
17 | 8 nM | > 5000 nM | Cc1ccc(-c2ncccn2)c(C(=O)N2CC(F)(F)C[C@@H](C)[C@H]2CNc2ncc(C(F)(F)F)cn2)n1 [Compound 17, ((2S,3R)-5,5-difluoro-3-methyl-2-(((5-(trifluoromethyl)pyrimidin-2-yl)amino)methyl)piperidin-1-yl)(6-methyl-3-(pyrimidin-2-yl)pyridin-2-yl)methanone]
18 | > 5000 nM | > 5000 nM | CCc1cnc(NC[C@@H]2[C@H](C)CC(F)(F)CN2C(=O)c2nn(C)cc2-c2ccc(F)cn2)nc1 [Compound 41]

From US12084437B2, “Halo-substituted piperidines as orexin receptor modulators” (AstraZeneca AB, priority 2016, dated 2024)
